Data set [1] relates to normal cells, including keratinocytes and dermal fibroblasts. Kind of data set: Proliferation and migration of normal cells. The class given is cell-based.
Data set [2] concerns MIAPaCa2 pancreatic cancer cells. Kind of data set: Proliferation assay (CFSE, flow cytometry). The class given is cell-based, human. The note with it: MIAPaca-2; CoQ10 with gemcitabine; FIG. 13. The method, then: FIG. 13 is a graph showing results from proliferation assay in which MIAPaCa2 pancreatic cancer cells were treated with gemcitabine alone or in combination with CoQ10 prior to assessment of proliferation via flow cytometric analysis using the cell tracer dye CFSE which stains live cells. Values are normalized to the number of cells treated with neither CoQ10 nor the chemotherapeutic agent.
Without being bound by mechanism, it is proposed that CoQ10 effectuates a metabolic switch from glycolysis towards enhanced mitochondrial oxidative phosphorylation resulting in the recapitulation of apoptosis in cancer. The effects of CoQ10 were investigated to determine if pretreatment with CoQ10 results in mitochondrial priming, thereby augmenting the cytotoxic effect of standard of care chemotherapeutic agents. MIAPaCa-2 human pancreatic cancer cells were either (a) pretreated with CoQ10 prior to treatment with gemcitabine or (b) co-treated with CoQ10 and gemcitabine.
In general terms: Flow cytometry measures light scatter and fluorescence of single cells or particles in a stream.

Data set [3] has as its system triple-negative breast cancer (TNBC) xenografts. Kind of data set: Triple-negative breast cancer (TNBC) xenograft, survival. It counts as in vivo, Mice. Conditions: FIG. 21.
The conditions of data set [4]: background statement; cited from earlier work.
The nature of data set [5]: Prior experiments, signs of toxicity. The class given is in vivo. The note with it: three times per week at up to 50 mg/kg. The method, then:
Sterile CoQ10 formula and the suitable sterile control is administered intravenously. CoQ10 doses are administered based on ongoing results. […] The effect of CoQ10 is compared with other chemotherapy regimens specific for each cancer line. Another arm of the study evaluates synergistic effects between CoQ10 and other chemotherapeutic agents.

Data set [6] has as its system tumors. The note with it: Example 8, written in present tense.
Experimental: In an in vivo tumor xenograft model, mice are implanted with tumors. For example, MIAPaCa-2 pancreatic cancer cells suspended in [sequence] are injected into NSG mice. Alternatively, other tumor cell lines, e.g., triple negative breast cancer, hepatic cancer, prostate cancer, melanoma, sarcoma, carcinoma cell lines, are used in the xenograft mouse model.
Various sequential regimens and combinations of CoQ10 and chemotherapeutic agents are tested for the ability to reduce tumor burden and/or reduce tumor metastasis. […] For example, in some animals, 2 or more cycles of CoQ10 are administered in Treatment 1 prior to one or more cycles of the chemotherapeutic agent in Treatment 2. In some animals, one cycle of CoQ10 is administered in Treatment 1 prior to administration of multiple cycles of chemotherapy in Treatment 2.
Tumor volumes are monitored using routine methods, e.g., calipers, imaging analysis. At the end of the study, tumors are excised and analyzed for using routine methods, e.g., for size (e.g., weight and volume), histological characteristics, grade, and vascularization.
In data set [7] the test system is MDA-MB213 breast cancer cells. Kind of data set: Reactive oxygen species (ROS) production. The class given is cell-based. The note with it: 100 μM CoQ10 for 24 hours, FIG. 17. As to the method:
(§1) Cells were treated with 100 μM CoQ10 for 24 hours.
(§2) Mitochondria represent a significant source of ROS which are known to participate in activation of cell death pathways.

For data set [8], the system named is non-tumorigenic control cells (MCF12A). Kind of data set: Reactive oxygen species (ROS) production. The note with it: 100 μM CoQ10 for 24 hours, FIG. 17. It counts as cell-based. As to the method: as §1, §2

For the compound `COC1=C(OC)C(=O)C(C/C=C(\C)CC/C=C(\C)CC/C=C(\C)CC/C=C(\C)CC/C=C(\C)CC/C=C(\C)CC/C=C(\C)CC/C=C(\C)CC/C=C(\C)CCC=C(C)C)=C(C)C1=O` [CoQ10, Coenzyme Q10], the “Proliferation and migration in normal cells” value in data set [1] was “increased proliferation and migration”. For the same compound, the “Proliferation vs gemcitabine alone” value in data set [2] is reported as “decreased proliferation”. For the same compound, the “Survival, CoQ10 in combination with the TAC regimen” value in data set [3] (75 mg/kg CoQ10, TAC: 5 mg/kg docetaxel, 1 mg/mg doxorubicin, 35 mg/kg cyclophosphamide every three weeks for six cycles) is “significantly improved survival”. Also, the “Survival, CoQ10 alone” value in data set [3] (75 mg/kg body weight CoQ10 (BPM 31510)) was “significantly improved survival”. Further, in data set [4], the Lipophilicity result is recorded as “very lipophilic” and the Solubility in water entry is reported as “insoluble in water”. Besides, in data set [5], the Signs of toxicity result is recorded as “no signs of toxicity”. In addition, the “Efficacy (tumor burden), one or more cycles of CoQ10 prior to a chemotherapeutic agent” value in data set [6] is given as “more effective than co-administration of CoQ10 with a chemotherapeutic agent or a chemotherapeutic agent alone”. Also, the ROS production entry in data set [7] is on record as “increased ROS production”. Also, the ROS production entry in data set [8] is “increased ROS production”.
